Data from patent publication US8440794B2, “Peptide sequences, their branched form and use thereof for antimicrobial applications” (Universita' Degli Studi di Siena, priority 2008, dated 2013).
Where no end group is shown, it is not given here.

Tests used:
E. coli TG1 = experiment: Antibacterial activity against E. coli TG1 cells (CFU count after 75 min incubation, FIG. 1A); format: cell-based; conditions: 75 minutes at 37° C., CFU counted
From the text: FIG. 1. A, Antibacterial activity against E. coli TG1 cells. Comparison of the following tetra-branched peptides: M6 batch 1 synthesis (triangles), M6 batch 2 synthesis (squares), M6 batch 3 synthesis (white circles), which contain a mixture of Gln and pyroGlu (in unknown percentages) as first amino-acid, […] (asterisks), where the first amino-acid is 100% pyroGlu, and M33 (black circles), in which the first Gln was deleted. […] SD derived by means of three different experiments. Many different syntheses of M33 (and also of M34, M35 and M36, here not shown) gave perfectly overlapping results without any wavering outcome. B, Mass spectrometry analysis of tetra-branched peptide M6 crude mixture. Calculated molecular mass of M6 was 5195 Da. Two main peaks are present, one at 5197 Da corresponding to unmodified M6 and one at 5179 Da that corresponds to the secondary product with one pyroGlu in first position in the place of one of the four Gln. C, Mass spectrometry analysis of tetrabranched peptide M33 after 24 hours of incubation in serum. The peptide appears as a single peak at the expected molecular mass (4683 Da).
A single colony of E. coli TG1 strain was cultured in 2×TY medium to 0.2 OD^600. […] The following day colonies (CFU/ml) grown on plates were counted.

P. aeruginosa AV65 = format: cell-based, Pseudomonas aeruginosa; conditions: P. aeruginosa AV65; FQr AGr ESCr NEMr (MBL/IMP-13)
Procedure: (§1) M33, […], M35 and M36 MICs were determined against strains of several bacterial species, including Gram-negative pathogens and also Staphylococcus aureus (Table 1). MICs in the micromolar range were observed against several Gram-negatives including Pseudomonas aeruginosa, Acinetobacter baumannii and most Enterobacteriaceae, with the exception of Proteus mirabilis, Serratia marcescens and Burkholderia cepacia. Activity of peptides was retained against MDR strains with various resistance mechanisms (such as extended-spectrum beta-lactamases and carbapenemases), including MDR P. aeruginosa strains from CF patients. Antimicrobial profile of M33, […] and potency were overall similar to those of polymyxin B, although M33, M34, M35 and M36 also appeared to have some activity against S. aureus (Table 1).

P. aeruginosa EF-OBG6-1 = format: cell-based, Pseudomonas aeruginosa; conditions: P. aeruginosa EF-OBG6-1; CF clinical isolate, FQr AGr ESCr NEMr (MBL/IMP-13)
Procedure: as §1

P. aeruginosa PAO-1 = format: cell-based, Pseudomonas aeruginosa; conditions: P. aeruginosa PAO-1; reference strain, wild type
Procedure: as §1

[1] = test system: P. aeruginosa SC-BGr12-02; format: cell-based, Pseudomonas aeruginosa; conditions: P. aeruginosa SC-BGr12-02; CF clinical isolate, FQr AGr ESCr NEMr
Procedure: as §1

[2] = test system: P. aeruginosa SC-CNm03-07; format: cell-based, Pseudomonas aeruginosa; conditions: P. aeruginosa SC-CNm03-07; CF clinical isolate, mucoid, FQr AGr ESCr NEMr
Procedure: as §1

[3] = test system: P. aeruginosa SC-DMr05-04; format: cell-based, Pseudomonas aeruginosa; conditions: P. aeruginosa SC-DMr05-04; CF clinical isolate, FQr AGr ESCr NEMr
Procedure: as §1

[4] = test system: P. aeruginosa SC-GMm03-05; format: cell-based, Pseudomonas aeruginosa; conditions: P. aeruginosa SC-GMm03-05; CF clinical isolate, mucoid, FQr AGr ESCr NEMr
Procedure: as §1

[5] = test system: P. aeruginosa SC-MDm03-02; format: cell-based, Pseudomonas aeruginosa; conditions: P. aeruginosa SC-MDm03-02; CF clinical isolate, mucoid, FQr AGr ESCr NEMr
Procedure: as §1

[6] = test system: P. aeruginosa SC-MDr03-06; format: cell-based, Pseudomonas aeruginosa; conditions: P. aeruginosa SC-MDr03-06; CF clinical isolate, FQr AGr ESCr NEMr
Procedure: as §1

[7] = test system: P. aeruginosa SC-VMr04-05; format: cell-based, Pseudomonas aeruginosa; conditions: P. aeruginosa SC-VMr04-05; CF clinical isolate, FQr AGr ESCr NEMr
Procedure: as §1

P. aeruginosa VR-143/97 = format: cell-based, Pseudomonas aeruginosa; conditions: P. aeruginosa VR-143/97; FQr AGr ESCr NEMr (MBL/VIM-1)
Procedure: as §1

[8] = test system: Acinetobacter baumannii RUH 134; format: cell-based; conditions: Acinetobacter baumannii RUH 134; reference strain, European clone II
Procedure: as §1

[9] = test system: Burkholderia cepacia ORB-99; format: cell-based; conditions: Burkholderia cepacia ORB-99; CF clinical isolate, wild type
Procedure: as §1

[10] = test system: Enterobacer aerogenes W03BG0067; format: cell-based; conditions: Enterobacer aerogenes W03BG0067; AGr ESCr (ESBL/SHV-5)
Procedure: as §1

[11] = test system: Enterobacter cloacae W03AN0041; format: cell-based; conditions: Enterobacter cloacae W03AN0041; ESCr (ESBL/SHV-12)
Procedure: as §1

[12] = test system: Escherichia coli ATCC 25922; format: cell-based; conditions: Escherichia coli ATCC 25922; reference strain, wild type
Procedure: as §1

[13] = test system: Klebsiella pneumoniae ATCC 13833; format: cell-based; conditions: Klebsiella pneumoniae ATCC 13833; reference strain, wild type
Procedure: as §1

[14] = test system: Proteus mirabilis W03VA1017; format: cell-based; conditions: Proteus mirabilis W03VA1017; FQr ESCr (AmpC/CMY-16)
Procedure: as §1

[15] = test system: Pseudomonas aeruginosa ATCC 27853; format: cell-based; conditions: Pseudomonas aeruginosa ATCC 27853; reference strain, wild type
Procedure: as §1

[16] = test system: Serratia marcescens W03BG0003; format: cell-based; conditions: Serratia marcescens W03BG0003; FQr AGr ESCr (ESBL/SHV-12)
Procedure: as §1

[17] = test system: Staphylococcus aureus ATCC 29213; format: cell-based; conditions: Staphylococcus aureus ATCC 29213; reference strain, PENr
Procedure: as §1

K pneumoniae 7086042 = format: cell-based, Klebsiella pneumoniae; conditions: K pneumoniae 7086042; FQr AGr ESCr NEMr (MBL/VIM-1)
Procedure: as §1

K pneumoniae C8-27 = format: cell-based, Klebsiella pneumoniae; conditions: K pneumoniae C8-27; FQr AGr ESCr ETPr (ESBL/CTX-M-15)
Procedure: as §1

K pneumoniae FIPP-1 = format: cell-based, Klebsiella pneumoniae; conditions: K pneumoniae FIPP-1; FQr AGr ESCr NEMr (MBL/KPC-3)
Procedure: as §1

E. coli W03BG0025 = format: cell-based, Escherichia coli; conditions: E. coli W03BG0025; FQr AGr ESCr (ESBL/CTX-M-15)
Procedure: as §1

A. baumannii MR157 = format: cell-based, Acinetobacter baumannii; conditions: A. baumannii MR157; FQr AGr ESCr NEMr (OXA/OXA-58)
Procedure: as §1

A. baumannii RUH 875 = format: cell-based, Acinetobacter baumannii; conditions: A. baumannii RUH 875; reference strain, European clone I
Procedure: as §1

S. aureus 3851 = format: cell-based, Staphylococcus aureus; conditions: S. aureus 3851; MR VANi
Procedure: as §1

## QKKIRVRLSA (also: tetra-branched MAP) [M6, previously reported tetra-branched MAP peptide with Gln as first amino-terminal residue, reference compound]
E. coli TG1
  Antibacterial activity against E. coli TG1 cells (comparison of tetra-branched peptides, FIG. 1A): intermediate antimicrobial activities

## Polymyxin B [reference compound]
P. aeruginosa AV65
  MIC: 1.5 µM
P. aeruginosa EF-OBG6-1
  MIC: 0.7 µM
P. aeruginosa PAO-1
  MIC: 1.5 µM
[1]
  MIC: 1.5 µM
[2]
  MIC: 0.7 µM
[3]
  MIC: 1.5 µM
[4]
  MIC: 1.5 µM
[5]
  MIC: 1.5 µM
[6]
  MIC: 1.5 µM
[7]
  MIC: 1.5 µM
P. aeruginosa VR-143/97
  MIC: 1.5 µM
[8]
  MIC: 1.5 µM
[9]
  MIC: >96 µM
[10]
  MIC: 0.7 µM
[11]
  MIC: 0.7 µM
[12]
  MIC: 0.7 µM
[13]
  MIC: 0.7 µM
[14]
  MIC: >96 µM
[15]
  MIC: 1.5 µM
[16]
  MIC: >96 µM
[17]
  MIC: 96 µM
K pneumoniae 7086042
  MIC: 1.5 µM
K pneumoniae C8-27
  MIC: 0.7 µM
K pneumoniae FIPP-1
  MIC: 1.5 µM
E. coli W03BG0025
  MIC: 0.7 µM
A. baumannii MR157
  MIC: 1.5 µM
A. baumannii RUH 875
  MIC: 1.5 µM
S. aureus 3851
  MIC: 96 µM
